Data taken from ChEMBL document CHEMBL4513161, “CO-ADD screening of MMV (CH) - Pandemic Response Box” (2021).
≈ marks a conversion by molar mass, not a printed value.

Key:
Candida albicans = assay: microbe, parasite or virus in culture; conditions: ATCC 90028, ASSAY_TEST Inhibition of Fungal Growth, detection method Absorption (OD530), plate type 384well, NBS, CORNING #3640
Klebsiella pneumoniae = assay: microbe, parasite or virus in culture; conditions: ATCC 700603, 18 h, ASSAY_TEST Inhibition of Bacterial Growth, detection method Absorption (OD600), MEDIA CAMHB, plate type 384well, NBS, CORNING #3640
HEK293 = assay: cells; assay type: functional, Homo sapiens, ATCC CRL1573; conditions: ASSAY_TEST Inhibition of Cell Viability, detection method Resazurin, Fluorescence (ex560/em590), MEDIA DMEM with 10% FBS, plate type 384well, TC, CORNING #3712, time 18 hr, read-out: CC50
Pseudomonas aeruginosa [1] = assay: Antibacterial activity against Pseudomonas aeruginosa PAO397 [PAO1 d(mexAB-oprM) d(mexCD-oprJ) d(mexEF-oprN) d(mexJKL) d(mexXY) d(opmH)] (CO-ADD:GN_211); MIC in CAMBH media using NBS plates, by OD(600); assay type: functional; conditions: ASSAY_TEST Inhibition of Bacterial Growth, detection method Absorption (OD600), MEDIA CAMHB, plate type 384well, CORNING #3640, time 18 hr
Acinetobacter baumannii = assay: microbe, parasite or virus in culture; conditions: ATCC 19606, 18 h, ASSAY_TEST Inhibition of Bacterial Growth, detection method Absorption (OD600), MEDIA CAMHB, plate type 384well, NBS, CORNING #3640
Escherichia coli = assay: microbe, parasite or virus in culture; conditions: ATCC 25922, 18 h, ASSAY_TEST Inhibition of Bacterial Growth, detection method Absorption (OD600), MEDIA CAMHB, plate type 384well, NBS, CORNING #3640
Staphylococcus aureus = assay: microbe, parasite or virus in culture; conditions: ATCC 43300, 18 h, ASSAY_TEST Inhibition of Bacterial Growth, detection method Absorption (OD600), MEDIA CAMHB, plate type 384well, NBS, CORNING #3640
Pseudomonas aeruginosa [2] = assay: microbe, parasite or virus in culture; conditions: ATCC 27853, 18 h, ASSAY_TEST Inhibition of Bacterial Growth, detection method Absorption (OD600), MEDIA CAMHB, plate type 384well, NBS, CORNING #3640
[3] = Homo sapiens, ATCC CRL1573, HEK293

Row | Structure (SMILES) | MIC (Candida albicans) | MIC (Klebsiella pneumoniae) | CC50 (HEK293; [3]) | MIC (Pseudomonas aeruginosa [1]) | MIC (Acinetobacter baumannii) | MIC (Escherichia coli) | MIC (Cryptococcus neoformans) | MIC (Staphylococcus aureus) | MIC (Pseudomonas aeruginosa [2]) | CC50 (HEK293)
1 | O=[N+]([O-])c1cn2c(n1)OC[C@@H](OCc1ccc(OC(F)(F)F)cc1)C2 [PRETOMANID] | > 20 µM | > 20 µM | > 20 µM | > 20 µM | > 20 µM | > 20 µM | > 20 µM | > 20 µM | > 20 µM | 
2 | Cc1c(CN(C)C(=O)/C=C/c2cnc3c(c2)C(C)(C)C(=O)N3)oc2ccccc12 | > 20 µM | > 20 µM | > 20 µM | > 20 µM | > 20 µM | > 20 µM | > 20 µM | 1.25 µM (≈ 0.487 µg/mL) | > 20 µM | 
3 | O=[N+]([O-])c1cn(Cc2nc(O)nc(O)c2Br)cn1 | > 20 µM | > 20 µM | > 20 µM | > 20 µM | > 20 µM | > 20 µM | > 20 µM | > 20 µM | > 20 µM | 
4 | CCNC(=O)Nc1cc(-c2ccccc2)c(-c2cncc(C(=O)O)c2)cn1 | > 20 µM | > 20 µM | > 20 µM | > 20 µM | > 20 µM | > 20 µM | > 20 µM | > 20 µM | > 20 µM | 
5 | CC(C)Oc1ccc(-n2cnc3cc(/C=C\c4ccc(C(C)(C)O)cc4)ccc32)cc1 [LHF-535] | > 20 µM | > 20 µM | 10.6 µM | > 20 µM | > 20 µM | > 20 µM | > 20 µM | > 20 µM | > 20 µM | 
6 | COc1cc2c(O)c3c(c(-c4ccc5c(c4)OCO5)c2cc1OC)C(=O)OC3 [DIPHYLLIN] | > 20 µM | > 20 µM | > 20 µM | > 20 µM | > 20 µM | > 20 µM | > 20 µM | > 20 µM | > 20 µM | 
7 | O=C(Cc1ccccc1F)Nc1nc2ccccc2[nH]1 | > 20 µM | > 20 µM | > 20 µM | > 20 µM | > 20 µM | > 20 µM | > 20 µM | > 20 µM | > 20 µM | 
8 | Cc1[nH]c2ccccc2c1CCNCc1ccc(/C=C/C(=O)NO)cc1 [PANOBINOSTAT] | > 20 µM | > 20 µM | > 20 µM | > 20 µM | > 20 µM | > 20 µM | > 20 µM | > 20 µM | > 20 µM | 
9 | CS(=O)(=O)c1ccc(Oc2ccc(Cl)cc2)cc1 | > 20 µM | > 20 µM | > 20 µM | > 20 µM | > 20 µM | > 20 µM | > 20 µM | > 20 µM | > 20 µM | 
10 | O=C(CP(=O)(O)O)NCCc1cccc(Oc2ccccc2)c1 | > 20 µM | > 20 µM | > 20 µM | > 20 µM | > 20 µM | > 20 µM | > 20 µM | > 20 µM | > 20 µM | 
11 | O=C(O)c1ccc(-c2ccc(O[C@H]3O[C@H](CO)[C@@H](O)[C@H](O)[C@@H]3O)cc2)cc1 | > 20 µM | > 20 µM | > 20 µM | > 20 µM | > 20 µM | > 20 µM | > 20 µM | > 20 µM | > 20 µM | 
12 | Cc1onc(-c2ccccc2)c1-c1ccc(S(N)(=O)=O)cc1 [VALDECOXIB] | > 20 µM | > 20 µM | > 20 µM | > 20 µM | > 20 µM | > 20 µM | > 20 µM | > 20 µM | > 20 µM | 
13 | COc1ccc(NC(=O)c2cc3ccccn3n2)cc1 | > 20 µM | > 20 µM | > 20 µM | > 20 µM | > 20 µM | > 20 µM | > 20 µM | > 20 µM | > 20 µM | 
14 | COc1ccc2sc3c(c2c1)NC(C)CNC3=O (centres undefined) | > 20 µM | > 20 µM | 8.52 µM | > 20 µM | > 20 µM | > 20 µM | > 20 µM | > 20 µM | > 20 µM | 
15 | COc1ccc(NC(=O)CC2Sc3ncnn3C2=O)cc1 (centres undefined) | > 20 µM | > 20 µM | 19.5 µM | > 20 µM | > 20 µM | > 20 µM | 20 µM (≈ 6.09 µg/mL) | > 20 µM | > 20 µM | 
16 | COc1cc(Cc2cc(N)nc(N)n2)cc(OC)c1OC | > 20 µM | 10 µM (≈ 2.9 µg/mL) | > 20 µM | 5 µM (≈ 1.45 µg/mL) | > 20 µM | 2.5 µM (≈ 0.726 µg/mL) | > 20 µM | 5 µM (≈ 1.45 µg/mL) | 20 µM (≈ 5.81 µg/mL) | 
17 | CN1c2ccc(Cl)cc2N(c2ccccc2)C(=O)c2cn(Cc3ccc(CN4CCOCC4)cc3)nc21 | > 20 µM | > 20 µM | > 20 µM | > 20 µM | > 20 µM | > 20 µM | > 20 µM | > 20 µM | > 20 µM | 
18 | COc1cc(C)c2c(Oc3cccc(C(F)(F)F)c3)c(OC)cc(NC(C)CCCN)c2n1 (centres undefined) [TAFENOQUINE SUCCINATE] | > 20 µM | > 20 µM | 6.36 µM | > 20 µM | > 20 µM | > 20 µM | > 20 µM | 10 µM | > 20 µM | 
19 | Nc1cccc(-c2nc(N)nc(NC3Cc4ccccc4C3)n2)c1 | > 20 µM | > 20 µM | > 20 µM | > 20 µM | > 20 µM | > 20 µM | > 20 µM | > 20 µM | > 20 µM | 
20 | Cc1cc(C)n2nc(C(=O)NS(=O)(=O)c3c(C)cccc3OC(F)(F)F)nc2n1 | > 20 µM | > 20 µM | > 20 µM | > 20 µM | > 20 µM | > 20 µM | > 20 µM | > 20 µM | > 20 µM | 
21 | N=c1n(CCN2CCCCC2)c2ccccc2n1CC(O)COc1ccc(Cl)cc1Cl (centres undefined) | > 20 µM | > 20 µM | 6.89 µM |  | > 20 µM | > 20 µM | > 20 µM | > 20 µM |  | 
22 | Cc1cccc(CC(=O)N[C@H]2CCOC2=O)c1 | > 20 µM | > 20 µM | > 20 µM | > 20 µM | > 20 µM | > 20 µM | > 20 µM | > 20 µM | > 20 µM | 
23 | CC[C@H](CO)Nc1nc(NCc2ccccc2)c2ncn(C(C)C)c2n1 [SELICICLIB] | > 20 µM | > 20 µM | > 20 µM | > 20 µM | > 20 µM | > 20 µM | > 20 µM | > 20 µM | > 20 µM | 
24 | CCc1cc(O)c(Oc2ccc(C(N)=O)cc2F)cc1F | > 20 µM | > 20 µM | > 20 µM | > 20 µM | > 20 µM | 2.5 µM (≈ 0.733 µg/mL) | > 20 µM | ≤ 0.156 µM | 10 µM (≈ 2.93 µg/mL) | 
25 | COc1ccc2c(c1OC)C(=O)OC2C1c2c(cc3c(c2OC)OCO3)CCN1C (centres undefined) | > 20 µM | > 20 µM | > 20 µM | > 20 µM | > 20 µM | > 20 µM | > 20 µM | > 20 µM | > 20 µM | 
26 | Clc1ccc(COC(Cn2ccnc2)c2ccc(Cl)cc2Cl)c(Cl)c1 (centres undefined) |  |  |  | > 20 µM |  |  | 0.625 µM (≈ 0.26 µg/mL) |  |  | > 20 µM
27 | CC(Oc1ccc(Cl)cc1Cl)C(=O)NCc1ccc2c(c1)OCO2 (centres undefined) |  |  | > 20 µM |  |  |  | > 20 µM |  |  | 
28 | CC1(C)[C@H](C(=O)O)N2C(=O)C[C@H]2S1(=O)=O [SULBACTAM] | > 20 µM |  | > 20 µM | > 20 µM | > 20 µM | > 20 µM | > 20 µM | > 20 µM | 2.5 µM (≈ 0.583 µg/mL) | 
29 | CCN(CC)CCn1c(=N)n(CC(O)COc2ccc(Cl)cc2Cl)c2ccccc21 (centres undefined) | > 20 µM | > 20 µM | 4.49 µM |  | > 20 µM | > 20 µM | > 20 µM | > 20 µM | 20 µM (≈ 9.03 µg/mL) | 
